The species named for assay [1] is Oryctolagus cuniculus. As to the kind of experiment: In vitro inhibition of collagen induced platelet aggregation of rabbit platelet rich plasma. Type of assay: functional.
The test system of assay [2] is Mus musculus. As to the kind of experiment: In vivo antithrombotic activity in mice following p.o. administration. Type of assay: functional. As to conditions: po, read-out: PD50.
In assay [3] the target is T1, Serotonin 2 (5-HT2) receptor (Rattus norvegicus, UniProt P30994+P08909+P14842). As to the kind of experiment: Inhibition of 5-hydroxytryptamine 2 induced vasoconstriction of rat caudal artery. Type of assay: tissue-based.
For assay [4], the target named is T1, Serotonin 2 (5-HT2) receptor. As to the kind of experiment: Antagonistic activity against 5-hydroxytryptamine 2 receptor on rat frontal cortex membrane. Type of assay: functional, tissue-based.
For assay [5], the system named is Mus musculus. Description: In vivo antithrombotic activity in mice (po). Type of assay: functional. Particulars: read-out: PD50.

Results on 51 compounds are retold here after ChEMBL document CHEMBL1124807, “Syntheses and platelet aggregation inhibitory and antithrombotic properties of [2-[(omega-aminoalkoxy)phenyl]ethyl]benzenes” (J Med Chem, 1990).

As usually defined, the IC50 is the midpoint of a concentration-inhibition curve. With `CN(C)CCCCOc1ccccc1CCc1ccc(F)cc1.Cl`, the IC50 in assay [1] (read-out: IC50) is 760 nM. Further, in assay [2], the ED50 was more than 50 mg/kg.
Taken in the same sequence, the figures for `CN(C)CCCOc1ccccc1CCc1ccc(Cl)cc1.Cl` were 540 nM and more than 50 mg/kg.
Taken in the same sequence, the figures for `CN(C)CCCCOc1ccccc1CCc1cccc(F)c1.Cl` were 480 nM and 27 mg/kg.
On to `CN(C)CCCCOc1ccccc1CCc1ccccc1Cl.Cl`, for which the IC50 in assay [1] (read-out: IC50) was found to be 500 nM. In assay [2], the ED50 amounted to 50 mg/kg.
`CCOc1ccccc1CCc1ccccc1OCCCCN(C)C`: the IC50 in assay [1] (read-out: IC50) is 900 nM.
For the compound `COc1ccccc1CCc1ccccc1OCCCCN(C)C.Cl`, the IC50 in assay [1] (read-out: IC50) was 600 nM. For the same compound, the ED50 in assay [2] was 45 mg/kg.
As usually defined, the Ki is a measure of affinity in units of concentration, obtained from inhibition or displacement. For the compound `COc1cccc(CCc2ccccc2OCCCCN(C)C)c1.Cl`, the Ki in assay [3] was 13.1 nM. In addition, the IC50 in assay [1] (read-out: IC50) came out at 530 nM; in assay [4], 62.2 nM. Further, in assay [2], the ED50 turned out to be 19 mg/kg.
`CN(C)CCCOc1ccccc1CCc1ccc(N(C)C)cc1.Cl` yielded a Ki in assay [3] of 23.3 nM. The IC50 is 310 nM in assay [1] (read-out: IC50) and 53.6 nM in assay [4]. Besides, the ED50 in assay [2] was determined as 130 mg/kg.
In the case of `CN(C)CCCCOc1ccccc1CCc1cccc(Cl)c1.Cl`, the IC50 in assay [1] (read-out: IC50) was determined as 530 nM. In addition, the ED50 in assay [2] came out at 27 mg/kg.
With `O=C(O)C1CCN(CCCCOc2ccccc2CCc2ccccc2)CC1`, the IC50 in assay [1] (read-out: IC50) was 6200 nM.
In the case of `CN(C)CCCOc1ccc(Cl)cc1CCc1ccccc1`, the Ki in assay [3] was 25.7 nM. The IC50 came to 2500 nM in assay [1] (read-out: IC50) and 881.4 nM in assay [4]. The ED50 in assay [5] amounted to 21 mg/kg.
On to `CN(C)CC(COc1ccccc1CCc1cccc(F)c1)OC(=O)CCC(=O)O` (centres undefined), for which the inhibition constant (Ki) in assay [3] was found to be 41.3 nM. In addition, the IC50 is 1200 nM in assay [1] (read-out: IC50) and 132.5 nM in assay [4]. Besides, in assay [2], the ED50 is 27 mg/kg.
In assay [3], `CN(C)CCCCCOc1ccccc1CCc1ccccc1` showed a Ki of 37.6 nM. Moreover, the IC50 in assay [1] (read-out: IC50) amounted to 1150 nM; in assay [4], 377 nM.
For the compound `Cc1ccccc1CCc1ccccc1OCCCCN(C)C`, the IC50 in assay [1] (read-out: IC50) came out at 1200 nM.
The same measure, in the same setting: next, `CCN(CC)CCCCOc1ccccc1CCc1ccccc1`: 700 nM.
For the compound `CN(C)CCCOc1ccccc1CCc1ccc(Cl)c(Cl)c1`, the IC50 in assay [1] (read-out: IC50) stood at 580 nM. Moreover, the ED50 in assay [2] worked out at 94 mg/kg.
Compound `CCCCN(C)CCCCOc1ccccc1CCc1ccccc1` had a Ki in assay [3] of 67.6 nM. The IC50 in assay [1] (read-out: IC50) stood at 3200 nM; in assay [4], 974.6 nM.
Consider `c1ccc(CCc2ccccc2OCCCCN2CCCCC2)cc1`, for which the IC50 in assay [1] (read-out: IC50) is 2400 nM.
With `CN(C)CCCCCCOc1ccccc1CCc1ccccc1`, in assay [3], the Ki came to 74.9 nM. Also, the IC50 stood at 1700 nM in assay [1] (read-out: IC50) and 152.4 nM in assay [4].
As to `COc1cccc(CCc2ccccc2)c1OCCCCN(C)C`, in assay [1] (read-out: IC50), the IC50 is 2300 nM. In addition, the ED50 in assay [5] came out at 40 mg/kg.
For `CN(CCCCOc1ccccc1CCc1ccccc1)c1ccccc1`, the IC50 in assay [1] (read-out: IC50) was more than 50000 nM.
Still for that read-out and setting: next, `CN(C)CCCCOc1ccccc1CCc1ccccc1C(=O)O`: 1500 nM.
Still for that read-out and setting: to `CN(C)CCCCOc1ccccc1CCc1ccccc1O` belongs 960 nM.
Regarding `CN(C)CC(COc1ccccc1CCc1ccccc1)OC(=O)CCC(=O)O` (centres undefined), the IC50 in assay [1] (read-out: IC50) was 2200 nM. Further, in assay [2], the ED50 is 27 mg/kg.
Consider `CN(C)CC(O)COc1ccccc1CCc1ccccc1` (centres undefined), for which, in assay [3], the Ki worked out at 13.9 nM. Further, the IC50 in assay [1] (read-out: IC50) came out at 1200 nM; in assay [4] it was 54.8 nM.
On to `COc1cccc(CCc2ccccc2OCC(O)CN(C)C)c1` (centres undefined), for which the inhibitory constant (Ki) in assay [3] is on record as 1.16 nM. For the same compound, the IC50 in assay [1] (read-out: IC50) turned out to be 480 nM; in assay [4], 12.5 nM. The ED50 in assay [2] turned out to be 29 mg/kg.
Take `CN(CCO)CCCCOc1ccccc1CCc1ccccc1`: in assay [1] (read-out: IC50), the IC50 came out at 1400 nM.
For `CN(C)CC(COc1ccccc1CCc1cccc(Cl)c1)OC(=O)CCC(=O)O` (centres undefined), the IC50 in assay [1] (read-out: IC50) amounted to 800 nM. Further, in assay [2], the ED50 came out at 27 mg/kg.
With `c1ccc(CCc2ccccc2OCCCCN2CCNCC2)cc1`, the IC50 in assay [1] (read-out: IC50) was determined as 2000 nM.
The same measure, in the same setting: to `CN(CCCCOc1ccccc1CCc1ccccc1)CCCC(=O)O` belongs 13000 nM; to `OCCN1CCN(CCCCOc2ccccc2CCc2ccccc2)CC1`, 2200 nM.
`CN(C)CCCCOc1ccc(CCc2ccccc2)cc1`: the Ki in assay [3] was determined as 416 nM. Moreover, the results for the IC50 in assay [1] (read-out: IC50) and in assay [4] were 3400 nM and 1976 nM, respectively.
Turning to `NC(=O)C1CCCN(CCCCOc2ccccc2CCc2ccccc2)C1` (centres undefined), the IC50 in assay [1] (read-out: IC50) worked out at 1400 nM.
Regarding `CN(C)CCCCOc1cccc(CCc2ccccc2)c1`, in assay [3], the Ki amounted to 517 nM. The IC50 in assay [1] (read-out: IC50) was 19000 nM; in assay [4], 3328.3 nM.
Take `CN(C)CC(COc1ccccc1CCc1ccccc1)OCCC(=O)O` (centres undefined): in assay [1] (read-out: IC50), the IC50 amounted to 3300 nM. For the same compound, the ED50 in assay [2] turned out to be 25 mg/kg.
The matching figures for `CN(C)CC(COc1ccccc1CCc1ccccc1)OCC(=O)O` (centres undefined): 3600 nM and 24 mg/kg.
In the case of `NCCCCOc1ccccc1CCc1ccccc1`, the IC50 in assay [1] (read-out: IC50) was more than 50000 nM.
As to `CN(C)CCOc1ccccc1CCc1ccccc1`, the Ki in assay [3] amounted to 6.33 nM. For the same compound, the IC50 in assay [1] (read-out: IC50) amounted to 670 nM; in assay [4], 96.2 nM.
The matching figures for `CNCCCCOc1ccccc1CCc1ccccc1`: 70.6 nM, 4500 nM and 156.5 nM.
For `CN(CCCCOc1ccccc1CCc1ccccc1)CC(=O)O`, in assay [1] (read-out: IC50), the IC50 turned out to be 29000 nM.
Same read-out and setting: to `c1ccc(CCc2ccccc2OCCCCN2CCOCC2)cc1` belongs 19000 nM.
Regarding `CN(C)CCCOc1ccccc1CCc1ccccc1`, the Ki in assay [3] is given as 4.55 nM. Besides, the IC50 in assay [1] (read-out: IC50) is 540 nM; in assay [4], 33.8 nM.
The matching figures for `CN(CCCCOc1ccccc1CCc1ccccc1)Cc1ccccc1`: 198 nM, more than 50000 nM and 4479 nM.
Turning to `CN(C)CCCCOc1ccccc1CCc1ccccc1`, the Ki in assay [3] came to 9.78 nM. Further, the IC50 is 700 nM in assay [1] (read-out: IC50) and 115.4 nM in assay [4]. Moreover, the ED50 in assay [5] is 26 mg/kg.
For the compound `NC(=O)C1CCN(CCCCOc2ccccc2CCc2ccccc2)CC1`, the IC50 in assay [1] (read-out: IC50) is 2400 nM.
Still for that read-out and setting: to `O=C(O)C1CCCN1CCCCOc1ccccc1CCc1ccccc1` (centres undefined) belongs 18000 nM; to `c1ccc(CCc2ccccc2OCCCCN2CCCC2)cc1`, 620 nM; to `OC1CCN(CCCCOc2ccccc2CCc2ccccc2)CC1`, 890 nM.
As for `CC(=O)Oc1ccccc1C(=O)O` [ASPIRIN], the IC50 in assay [1] turned out to be 23000 nM.
The compound `COc1cccc(CCc2ccccc2OCC(CN(C)C)OC(=O)CCC(=O)O)c1.Cl` (centres undefined) [SARPOGRELATE HYROCHLORIDE] gave a Ki in assay [3] of 17.8 nM. In addition, the IC50 in assay [1] (read-out: IC50) was found to be 970 nM; in assay [4], 51.3 nM. The ED50 in assay [2] was 24 mg/kg.
In the case of `Clc1ccccc1CN1CCc2sccc2C1` [TICLOPIDINE], the ED50 in assay [2] worked out at 120 mg/kg.
